Source: PubChem BioAssay AID1963973 (Molecular Pharmacology Branch, DTP, NCI, 2024)
Several values for one entry are separate records, joined by “and”; a condition that tells them apart may be missing. Equal entries are not always repeated. Blank lines part the entries; values can stand above or below the compound they belong to.

Test system: 883617-216-R-J1-PDC tumor spheroids, viability
Assay: Anticancer human tumor 883617-216-R-J1-PDC patient-derived bladder carcinoma cell line growth inhibition [PI3K]
Details: spheroids with HUVEC and MSC; for viability, T/C: stronger effect = lower value
Source text: Combinatorial screen of targeted agents with the PI3K inhibitors inavolisib, alpelisib, duvelisib, and copanlisib in multi-cell type tumor spheroids
A high-throughput screen of multi-cell type tumor spheroids was designed to identify active combinations of targeted small molecules and PI3K pathway inhibitors. Complex spheroids include a stromal component modeled by human endothelial cells (HUVEC) and fibroblasts modeled by human mesenchymal stem cells (MSCs). The concentration ranges selected for each drug and investigational agent were based upon clinically achievable concentrations if the clinical Cmax of the agent was known.
Compounds. The drugs and investigational agents: inavolisib (NSC800729), alpelisib (NSC765974), duvelisib (NSC772469), copanlisib (NSC816437), ipatasertib (NSC767898), afuresertib (NSC778305), talazoparib (NSC767125), sapanisertib (NSC764658), selumetinib (NSC741078), tovorafenib (DAY101, NSC766906), vemurafenib (NSC761431), ravoxertinib (NSC781343), sotorasib (NSC818433), MRTX1133 (NSC 836407), abemaciclib (NSC 768073), palbociclib (NSC758247), venetoclax (NSC 766270), SY5609 (NSC837396), enzalutamide (NSC755605), and darolutamide (NSC825331), were obtained from the National Cancer Institute (NCI) Developmental Therapeutics Program Chemical Repository. The FDA-approved anticancer drug set is available from the NCI Developmental Therapeutics Program. […] The stock solutions were prepared in dimethyl sulfoxide (DMSO, Sigma-Aldrich, St. Louis, MO, cat. D2650) at 800-fold the tested concentration and stored at -70 degrees C prior to their use. All drugs and investigational agents were tested over a range starting from a high concentration at or near the clinical Cmax and decreasing in half-log increments. If the clinical Cmax for an agent had not been determined, the highest concentration tested was 10 microM.
Cell Culture. All cells were maintained in an incubator at 37 degrees C and 5% CO2 with 95% humidity. The PDC lines were cultured according to standard operating procedures established by the NCI PDMR (https://pdmr.cancer.gov/sops/default.htm). All PDCs were thawed and cultured in Matrigel-coated flasks prepared with a working solution of 1X Ham's F-12 nutrient mix, without supplementation (Invitrogen, Waltham, MA, cat. 11765054), 100 U/mL penicillin-streptomycin (Invitrogen, cat. 15140122), and 2.5% Matrigel (Corning Inc., Corning, NY, cat. 354248) for the first three passages. The 354836-022-R-J1-PDC, 475296-252-R-J1-PDC, and 997726-040-R-J2-PDC lines were cultured in 6A media, which includes advanced DMEM/F-12 (Thermo Fisher Scientific, cat. 12634028), 10 mM HEPES (Thermo Fisher Scientific, cat. 15630080), 1X GlutaMAX supplement (Thermo Fisher Scientific, cat. 35050061), 0.1 mg/mL primocin (InvivoGen, San Diego, CA, cat. ant-pm-2), 10% defined fetal bovine serum, heat inactivated (HyClone Laboratories Inc., Logan, UT, cat. SH30070.03HI), 50% L-WRN conditioned media (ATCC, cat. CRL-3276), 1.25 mM N-Acetyl-L-cysteine (Sigma-Aldrich, cat. A9165), 10 mM nicotinamide (Sigma-Aldrich, cat. N0636), 1X B-27 supplement (Thermo Fisher Scientific, cat. 17504044), 1X N-2 supplement (Thermo Fisher Scientific, cat. 17502048), and 10 microM Y-27632 dihydrochloride (Tocris Bioscience, Bristol, United Kingdom, cat. 1254). The 624824-186-R-J2-PDC line was cultured in 6C/Colon 1B media, which includes all 6A media components plus 50 ng/mL human EGF recombinant protein (Thermo Fisher Scientific, cat. PHG0311). […]
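Further: spheroids exposed to agents for 7 days before the viability read.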

- IC50 (curve of compound): > 10000 nM
Compound: C#Cc1c(F)ccc2cc(O)cc(-c3ncc4c(N5CC6CCC(C5)N6)nc(OCC56CCCN5CC(F)C6)nc4c3F)c12 (stereo unspecified)
- viability, T/C (compound 0.0316 µM): 99.5% [middle of 4 runs]
- viability, T/C (compound 0.1 µM): 95.7% [middle of 4 runs]
- viability, T/C (compound 0.316 µM): 100% [middle of 4 runs]
- viability, T/C (compound 1 µM): 88% [middle of 4 runs]
- viability, T/C (compound 3.16 µM): 80.5% (2×) and 102% and 88.1%
- viability, T/C (compound 10 µM): 65.8% [middle of 4 runs]

- IC50 (curve of compound): > 10000 nM
Compound: CC(Cn1ccc(-c2ccc(C#N)c(Cl)c2)n1)NC(=O)c1cc(C(C)O)[nH]n1 (stereo unspecified)
- viability, T/C (compound 0.1 µM): 90.8% [middle of 4 runs]
- viability, T/C (compound 0.316 µM): 104% [middle of 4 runs]
- viability, T/C (compound 1 µM): 95.5% [middle of 4 runs]
- viability, T/C (compound 3.16 µM): 110% [middle of 4 runs]
- viability, T/C (compound 10 µM): 102% [middle of 4 runs]

- IC50 (curve of compound): > 10000 nM
Compound: C[C@@H](NC(=O)c1ncnc(N)c1Cl)c1ncc(C(=O)Nc2cc(C(F)(F)F)c(Cl)cn2)s1
- viability, T/C (compound 0.1 µM): 96.9% [middle of 4 runs]
- viability, T/C (compound 0.316 µM): 88.3% [middle of 4 runs]
- viability, T/C (compound 1 µM): 96.5% [middle of 4 runs]
- viability, T/C (compound 3.16 µM): 93.2% (2×) and 95.3% and 100%
- viability, T/C (compound 10 µM): 73% [middle of 4 runs]

- IC50 (curve of first compound, second compound 0.00316 µM): 40.6 nM
- IC50 (curve of first compound, second compound 0.01 µM): 34.9 nM
- IC50 (curve of first compound, second compound 0.0316 µM): 10.3 nM
- IC50 (curve of first compound, second compound 0.1 µM): 13.4 nM
- IC50 (curve of first compound, second compound 0.316 µM): < 9.49 nM
- IC50 (curve of first compound, second compound 1 µM): < 9.49 nM
Compound: Cn1cnc2c(F)c(Nc3ccc(Br)cc3Cl)c(C(=O)NOCCO)cc21 + CC(Nc1ccc2c(c1)OCCn1cc(N3C(=O)OCC3C(F)F)nc1-2)C(N)=O
- viability, T/C (second compound 0.00316 µM, first compound 0.00949 µM): 64.5%
- viability, T/C (second compound 0.00316 µM, first compound 0.03 µM): 57.4%
- viability, T/C (second compound 0.00316 µM, first compound 0.0949 µM): 35.1%
- viability, T/C (second compound 0.00316 µM, first compound 0.3 µM): 35.3%
- viability, T/C (second compound 0.00316 µM, first compound 0.949 µM): 26.5%
- viability, T/C (second compound 0.00316 µM, first compound 3 µM): 19.6%
- viability, T/C (second compound 0.01 µM, first compound 0.00949 µM): 62.9%
- viability, T/C (second compound 0.01 µM, first compound 0.03 µM): 47.3%
- viability, T/C (second compound 0.01 µM, first compound 0.0949 µM): 45.9%
- viability, T/C (second compound 0.01 µM, first compound 0.3 µM): 30.6%
- viability, T/C (second compound 0.01 µM, first compound 0.949 µM): 26.8%
- viability, T/C (second compound 0.01 µM, first compound 3 µM): 19.4%
- viability, T/C (second compound 0.0316 µM, first compound 0.00949 µM): 51.8%
- viability, T/C (second compound 0.0316 µM, first compound 0.03 µM): 36%
- viability, T/C (second compound 0.0316 µM, first compound 0.0949 µM): 25%
- viability, T/C (second compound 0.0316 µM, first compound 0.3 µM): 25.2%
- viability, T/C (second compound 0.0316 µM, first compound 0.949 µM): 20.1%
- viability, T/C (second compound 0.0316 µM, first compound 3 µM): 14.2%
- viability, T/C (second compound 0.1 µM, first compound 0.00949 µM): 61.2%
- viability, T/C (second compound 0.1 µM, first compound 0.03 µM): 21.9%
- viability, T/C (second compound 0.1 µM, first compound 0.0949 µM): 23.4%
- viability, T/C (second compound 0.1 µM, first compound 0.3 µM): 18%
- viability, T/C (second compound 0.1 µM, first compound 0.949 µM): 16.7%
- viability, T/C (second compound 0.1 µM, first compound 3 µM): 7.35%
- viability, T/C (second compound 0.316 µM, first compound 0.00949 µM): 22.1%
- viability, T/C (second compound 0.316 µM, first compound 0.03 µM): 16.2%
- viability, T/C (second compound 0.316 µM, first compound 0.0949 µM): 10.5%
- viability, T/C (second compound 0.316 µM, first compound 0.3 µM): 11.5%
- viability, T/C (second compound 0.316 µM, first compound 0.949 µM): 8.13%
- viability, T/C (second compound 0.316 µM, first compound 3 µM): 4.48%
- viability, T/C (second compound 1 µM, first compound 0.00949 µM): 13.3%
- viability, T/C (second compound 1 µM, first compound 0.03 µM): 9.92%
- viability, T/C (second compound 1 µM, first compound 0.0949 µM): 7.16%
- viability, T/C (second compound 1 µM, first compound 0.3 µM): 7.46%
- viability, T/C (second compound 1 µM, first compound 0.949 µM): 6.08%
- viability, T/C (second compound 1 µM, first compound 3 µM): 3.09%
